Results on 7 compounds are retold here after patent US12178791B2, “Haloallylamine sulfone derivative inhibitors of lysyl oxidases and uses thereof” (Syntara Limited, priority 2018, dated 2024).

The conditions of series [1]: in vivo; cited from earlier work.
Series [2] addresses LOX (Rattus norvegicus (Rat), UniProt P16636). Particulars: CIA rats; cited from earlier work.
Series [3] deals with surgery induced systemic LOX (Mus musculus (Mouse), UniProt P28301). The conditions noted are these: in vivo; cited from earlier work.
Series [4] has as its target Recombinant human MAO-B (Homo sapiens (Human), UniProt P27338). Kind of series: Inhibition of human recombinant MAO-B. In kind it is biochemical. The conditions noted are these: benzylamine 100 μM. As for the experimental part:
The specificity of the compounds of this invention was tested by determining their ability to inhibit MAO-B activities in vitro. Recombinant human MAO-B (0.06 mg/mL; Sigma Aldrich) was used as source of MAO-B enzyme activities. The assay was performed in a similar way as for human SSAO/VAP-1 (Example 28) except, the substrate benzylamine was used at 100 μM.

The target in series [5] is Human recombinant SSAO/VAP-1 (Homo sapiens (Human), UniProt Q16853). Put plainly: Inhibition of human recombinant SSAO/VAP-1. In kind it is biochemical. The method in brief:
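Purified enzyme (residues 34-763, expressed in CHO Lec8 cells; 0.25 μg/mL in 0.1 M sodium phosphate pH 7.4) was preincubated with compound 30 min at 37 °C. An added mix held 600 μM benzylamine, 120 μM Amplex Red and 1.5 U/mL HRP. Fluorescence (ex 565/em 590 nm) was read every 2.5 min for 30 min at 37 °C, and IC50 was derived from kinetic slopes over 4-11-point curves.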

Series [6] deals with desmoplastic ovarian tumour. Particulars: mouse, in vivo; cited from earlier work.
Series [7] relates to SiHa cervical cancer cells. Particulars: cited from earlier work.
Series [8] has as its target T1, LOXL2 (Homo sapiens (Human), UniProt Q9Y4K0). Put plainly: LOXL2 inhibition, Amplex Red oxidation assay. In kind it is biochemical. The conditions noted are these: 30 min preincubation at 37 °C, putrescine substrate. The method in brief:
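LOXL2 in 1.2 M urea, 50 mM sodium borate pH 8.2 was preincubated with compound (11-point curve) for 30 min at 37 °C; mofegiline/pargyline were added only for non-purified enzyme. Reaction mix held 2× KM putrescine (10 mM), 120 μM Amplex Red and 1.5 U/mL HRP. H2O2 fluorescence (ex 565/em 590 nm) was read over 30 min, and IC50 came from slopes.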

Series [9] has as its target Bovine LOX (Bos taurus (Bovine), UniProt P33072). Put plainly: LOX inhibition, Amplex Red oxidation assay. In kind it is biochemical. The conditions noted are these: 30 min preincubation at 37 °C, putrescine substrate. The method in brief:
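Bovine LOX in 1.2 M urea, 50 mM sodium borate pH 8.2, with 1 μM mofegiline and 0.5 mM pargyline unless recombinant or purified. The added mix held putrescine at twice KM (20 mM for LOX), 120 μM Amplex Red and 1.5 U/mL HRP.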

The subject of series [10] is MMTV-PyMT breast cancer. Particulars: in vivo; cited from earlier work.
For series [11], the target named is T1, LOXL2. Put plainly: Jump dilution experiment, sustained inhibition of LOXL2.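 Further: 30× IC50 used only where needed so inhibitor exceeds enzyme concentration.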 The series is classed as biochemical. The conditions noted are these: jump dilution after 40 min at 37 °C with 10× or 30× IC50; vs non-inhibited controls. The procedure:
(§1) Jump Dilution experiment: The assay was developed using a 96 well format and the starting enzyme concentration was set 100 times higher than for the inhibition studies. […] After the incubation, the mixture was diluted 50× in assay buffer, followed by a further 2× dilution in Amplex Red-horseradish peroxidase-putrescine reaction mix (same as per the inhibition studies) prior to the fluorescent measurement. Results were expressed in % recovery of the signal after a specified time by comparison with non-inhibited controls.

Series [12] deals with LOXL1 (Homo sapiens (Human), UniProt Q08397). Kind of series: Jump dilution experiment, sustained inhibition of LOXL1.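 Further: 30× IC50 used only where needed so inhibitor exceeds enzyme concentration.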 In kind it is biochemical. The conditions noted are these: jump dilution after 40 min at 37 °C with 10× or 30× IC50; vs non-inhibited controls. As for the experimental part:
as §1

The subject of series [13] is GATA1low mice. Kind of series: Mouse model of primary myelofibrosis. In kind it is in vivo. Particulars: 15 mg/kg i.p. four times a week for 10 weeks. The procedure: Fifteen to sixteen week old GATA1low male and female mice were intra-peritoneal injected with either vehicle (olive oil), or Compound 19 at a dose of 15 mg/kg, four times a week for 10 weeks. The mice were then sacrificed and the spleens and femurs were harvested for histology and analysis (FIGS. 7(a-e) and FIGS. 8(a-d)).

Series [14] addresses rhSSAO (Homo sapiens (Human), UniProt Q16853). Put plainly: Measurement of substrate turnover by SSAO. The series is classed as biochemical. The conditions noted are these: compound 2.5 mM, relative to background (dimethyl sulfoxide only). As for the experimental part:
In brief, the assay employed determines the substrate propensity of a compound relative to background (dimethyl sulfoxide only). Compound oxidation by rhSSAO was measured by fluorometric assay (Holt and Palcic, 2006). Briefly, rhSSAO was incubated for 2 hours at 37° C. in HEPES buffer before the addition of an equal volume of Amplex Red ([…]), horseradish peroxidase (4 U/ml), and Compound (2.5 mM) in the same buffer. The kinetics of the formation of resorufin was measured immediately using Optima reader (BMG Labtech GmbH, Ortenburg, Germany), at 37° C.

Setting [15] is: 30 min preincubation at 37 °C, benzylamine 600 μM, read-out: SSAO/VAP-1 Activity IC50.

Structures can show the parent of a compound that is named as a salt. Where two headings read alike, the source gives them in different places.

Chain of LOXL1 (Q08397 96-574, species assumed): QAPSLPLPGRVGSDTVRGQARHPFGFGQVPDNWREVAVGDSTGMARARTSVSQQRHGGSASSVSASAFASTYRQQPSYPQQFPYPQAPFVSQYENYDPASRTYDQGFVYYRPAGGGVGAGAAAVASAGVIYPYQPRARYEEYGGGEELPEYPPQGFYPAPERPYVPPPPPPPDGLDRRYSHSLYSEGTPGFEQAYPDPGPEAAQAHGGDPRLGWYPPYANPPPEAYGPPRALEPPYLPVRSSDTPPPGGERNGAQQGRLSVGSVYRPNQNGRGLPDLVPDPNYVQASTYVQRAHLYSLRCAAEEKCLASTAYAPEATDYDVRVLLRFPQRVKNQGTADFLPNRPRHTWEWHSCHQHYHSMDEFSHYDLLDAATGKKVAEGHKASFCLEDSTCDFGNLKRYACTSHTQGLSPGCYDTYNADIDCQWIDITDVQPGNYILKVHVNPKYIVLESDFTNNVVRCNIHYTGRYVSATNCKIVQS
T1 sequence (Q9Y4K0 26-774): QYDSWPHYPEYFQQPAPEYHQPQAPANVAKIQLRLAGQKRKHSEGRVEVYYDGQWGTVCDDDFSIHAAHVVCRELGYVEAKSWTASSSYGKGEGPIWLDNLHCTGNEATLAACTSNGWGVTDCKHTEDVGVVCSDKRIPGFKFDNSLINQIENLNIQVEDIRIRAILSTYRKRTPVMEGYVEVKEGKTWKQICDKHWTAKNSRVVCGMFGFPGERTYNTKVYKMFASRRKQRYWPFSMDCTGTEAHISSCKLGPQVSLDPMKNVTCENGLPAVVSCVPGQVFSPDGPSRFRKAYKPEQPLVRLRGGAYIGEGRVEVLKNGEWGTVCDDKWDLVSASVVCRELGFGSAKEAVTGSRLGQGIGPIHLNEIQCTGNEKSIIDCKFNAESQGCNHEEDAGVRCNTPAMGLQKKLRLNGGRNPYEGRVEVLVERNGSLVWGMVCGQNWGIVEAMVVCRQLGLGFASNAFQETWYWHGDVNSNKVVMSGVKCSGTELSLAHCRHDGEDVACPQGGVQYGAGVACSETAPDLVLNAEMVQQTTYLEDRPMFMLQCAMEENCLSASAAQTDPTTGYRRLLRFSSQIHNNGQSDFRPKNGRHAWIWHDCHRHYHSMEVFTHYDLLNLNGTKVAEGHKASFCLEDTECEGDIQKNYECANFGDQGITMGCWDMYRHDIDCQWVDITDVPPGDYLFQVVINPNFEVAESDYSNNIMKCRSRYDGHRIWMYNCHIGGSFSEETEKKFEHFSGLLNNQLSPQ
Chain of Bovine LOX (P33072 170-418): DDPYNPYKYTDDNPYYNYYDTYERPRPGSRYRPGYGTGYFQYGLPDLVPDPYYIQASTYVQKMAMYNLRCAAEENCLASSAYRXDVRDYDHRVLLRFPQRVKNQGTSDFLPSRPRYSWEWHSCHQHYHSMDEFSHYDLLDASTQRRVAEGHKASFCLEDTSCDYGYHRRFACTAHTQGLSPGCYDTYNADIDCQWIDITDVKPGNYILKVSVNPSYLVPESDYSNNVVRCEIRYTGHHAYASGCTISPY
Chain of Human recombinant SSAO/VAP-1 (Q16853 34-763): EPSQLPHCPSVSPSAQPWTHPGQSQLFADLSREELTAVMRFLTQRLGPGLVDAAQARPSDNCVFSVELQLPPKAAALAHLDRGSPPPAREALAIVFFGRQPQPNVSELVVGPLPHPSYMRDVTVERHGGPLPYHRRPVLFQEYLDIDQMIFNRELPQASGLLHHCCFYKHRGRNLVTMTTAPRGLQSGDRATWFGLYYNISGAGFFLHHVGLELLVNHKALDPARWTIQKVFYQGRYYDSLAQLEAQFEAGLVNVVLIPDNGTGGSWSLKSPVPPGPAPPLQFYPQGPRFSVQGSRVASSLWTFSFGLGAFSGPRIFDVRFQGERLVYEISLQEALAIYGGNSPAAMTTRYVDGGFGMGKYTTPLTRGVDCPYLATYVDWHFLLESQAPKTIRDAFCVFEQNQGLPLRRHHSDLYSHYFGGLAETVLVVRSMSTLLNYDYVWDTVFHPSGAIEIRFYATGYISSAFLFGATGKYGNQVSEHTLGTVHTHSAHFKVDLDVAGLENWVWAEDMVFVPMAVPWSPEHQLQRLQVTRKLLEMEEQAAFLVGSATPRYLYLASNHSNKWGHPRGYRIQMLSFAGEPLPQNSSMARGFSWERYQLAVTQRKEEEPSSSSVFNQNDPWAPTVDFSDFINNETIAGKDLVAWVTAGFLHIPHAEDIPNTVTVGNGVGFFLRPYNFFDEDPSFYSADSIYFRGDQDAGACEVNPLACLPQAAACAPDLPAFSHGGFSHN
Chain of Recombinant human MAO-B (P27338 whole entry): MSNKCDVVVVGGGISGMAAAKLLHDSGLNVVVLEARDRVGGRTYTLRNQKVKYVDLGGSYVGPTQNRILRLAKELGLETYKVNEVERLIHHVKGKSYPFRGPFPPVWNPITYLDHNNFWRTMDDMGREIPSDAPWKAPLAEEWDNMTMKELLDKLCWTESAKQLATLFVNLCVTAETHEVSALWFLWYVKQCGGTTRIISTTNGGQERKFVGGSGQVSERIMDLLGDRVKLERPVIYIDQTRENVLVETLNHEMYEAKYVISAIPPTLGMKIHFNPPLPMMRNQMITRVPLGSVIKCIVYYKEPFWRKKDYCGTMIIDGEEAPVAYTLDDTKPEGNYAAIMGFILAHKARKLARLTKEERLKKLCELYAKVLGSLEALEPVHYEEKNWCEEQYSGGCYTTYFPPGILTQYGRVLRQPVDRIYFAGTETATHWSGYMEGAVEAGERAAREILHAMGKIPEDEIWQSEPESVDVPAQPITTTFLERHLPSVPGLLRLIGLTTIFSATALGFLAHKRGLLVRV
Chain of LOX (P16636 163-411): as the sequence (P33072 170-418) above, with T10S, P27S, Y31H, A64S, X84A, N188A, K202Q counted along it
Chain of surgery induced systemic LOX (P28301 163-411): as the sequence (P33072 170-418) above, with T10S, Y31N, A64S, X84A, S142N, N188A, K202Q, S224T, E231D counted along it
Chain of rhSSAO (Q16853 whole entry): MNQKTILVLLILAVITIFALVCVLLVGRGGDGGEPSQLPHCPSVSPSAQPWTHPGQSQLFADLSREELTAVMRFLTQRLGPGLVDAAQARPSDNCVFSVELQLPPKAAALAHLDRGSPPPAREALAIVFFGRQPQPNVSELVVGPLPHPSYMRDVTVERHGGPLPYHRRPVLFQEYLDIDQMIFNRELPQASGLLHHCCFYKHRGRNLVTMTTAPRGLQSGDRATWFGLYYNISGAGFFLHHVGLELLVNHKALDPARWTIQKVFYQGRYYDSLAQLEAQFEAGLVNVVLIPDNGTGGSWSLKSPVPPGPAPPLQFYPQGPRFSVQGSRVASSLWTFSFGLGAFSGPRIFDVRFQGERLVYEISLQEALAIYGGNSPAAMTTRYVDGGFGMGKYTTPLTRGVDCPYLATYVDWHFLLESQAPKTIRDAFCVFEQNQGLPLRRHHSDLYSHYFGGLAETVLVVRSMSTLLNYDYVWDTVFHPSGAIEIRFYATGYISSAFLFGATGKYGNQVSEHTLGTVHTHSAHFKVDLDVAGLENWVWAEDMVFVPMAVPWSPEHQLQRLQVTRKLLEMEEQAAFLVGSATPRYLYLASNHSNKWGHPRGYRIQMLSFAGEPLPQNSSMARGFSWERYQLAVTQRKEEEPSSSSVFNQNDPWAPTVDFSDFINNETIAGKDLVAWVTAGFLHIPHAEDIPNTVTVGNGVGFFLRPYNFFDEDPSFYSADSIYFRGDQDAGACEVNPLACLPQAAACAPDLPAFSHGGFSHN

As to `N#CCCN` [BAPN, β-aminopropionitrile], in series [1], the “tolerability in human patients with scleroderma” value is “poorly tolerated”. Further, the “inflammation, synovial hyperplasia, angiogenesis and expression of MMP-2 and MMP-9” value in series [2] was “attenuate”. Moreover, in series [3], the “metastasis and survival after surgery induced systemic LOX” value was “reducing metastasis and increasing survival”. Moreover, the IC50 was over 30 µM in series [4], over 30 µM in series [5] (setting [15]), under 1 µM in series [8] and under 10 µM in series [9]. Besides, the lung metastasis entry in series [6] was “decreased”. In addition, the survival result in [6] is reported as “significantly increased”. For the same compound, the “increased invasion in vitro under hypoxic/anoxic conditions” value in series [7] is recorded as “repressed”.
Consider `CS(=O)(=O)c1cc(-c2ccccc2)cc(S(=O)(=O)c2ccc(CN)s2)c1` [CCT365623], for which, in series [10], the metastasis and survival result was “reduce metastasis and increase survival”.
Turning to `CN(C)S(=O)(=O)c1ccc(COc2cccc(S(=O)(=O)C/C(F)=C/CN)c2)cc1` [Compound 9, (Z)-4-((3-((4-amino-2-fluorobut-2-en-1-yl)sulfonyl)phenoxy)methyl)-N,N-dimethylbenzenesulfonamide hydrochloride], the IC50 in [4] is under 10 µM; in series [5] (setting [15]), over 30 µM; in series [8], under 1 µM; in series [9], under 1 µM. For the same compound, in series [11], the “LOXL2 - Recovery of activity. (%)” value turned out to be 15.1%. Also, in series [12], the “LOXL1 - Recovery of activity. (%)” value is 4.4%.
For the compound `NC/C=C(\F)CS(=O)(=O)c1ccccc1C(=O)NC12CC3CC(CC(C3)C1)C2` [Compound 12, N-(adamantan-1-yl)-2-(((Z)-4-amino-2-fluorobut-2-en-1-yl)sulfonyl)benzamide hydrochloride], the IC50 in series [4] was over 30 µM; in series [5] (setting [15]), over 30 µM; in series [8], under 1 µM; in series [9], under 10 µM. Further, the “LOXL2 - Recovery of activity. (%)” value in [11] amounted to 9.3%. Also, the “LOXL1 - Recovery of activity. (%)” value in [12] came out at 2.6%.
Regarding `NC/C=C(\F)CS(=O)(=O)c1cccc(C(=O)NC23CC4CC(CC(C4)C2)C3)c1` [Compound 13, N-(adamantan-1-yl)-3-(((Z)-4-amino-2-fluorobut-2-en-1-yl)sulfonyl)benzamide hydrochloride], the IC50 was under 10 µM in series [4], over 30 µM in [5] (setting [15]), under 10 µM in [8] and under 10 µM in [9]. Moreover, the “LOXL2 - Recovery of activity. (%)” value in series [11] was found to be 8.9%. For the same compound, the “LOXL1 - Recovery of activity. (%)” value in [12] is listed as 3.5%.
Consider `NC/C=C(\F)CS(=O)(=O)c1ccccc1Cl` [Compound 19, (Z)-4-(2-chlorophenylsulfonyl)-3-fluorobut-2-en-1-amine hydrochloride], for which the IC50 in series [4] was over 30 µM; in [5] (setting [15]), over 30 µM; in series [8], under 1 µM; in series [9], under 10 µM. Moreover, in series [11], the “LOXL2 - Recovery of activity. (%)” value was determined as 7.9%. In addition, the “LOXL1 - Recovery of activity. (%)” value in [12] came out at 7.8%. Moreover, the “Bone marrow (BM) and splenic fibrosis” value in [13] (vs vehicle) is reported as “significantly decreased”. For the same compound, the “Morphologic BM megakaryocytes (MKs) on H&E stain” value in series [13] (p<0.001 vs vehicle) was determined as 24.65±0.6 per 20× field. This compound also came in with a platelet count post-treatment in [13] (p<0.05 vs vehicle) of 77.5±4.4 K/uL. Besides, in [13] (p<0.05 vs vehicle), the “spleen weights adjusted to body weight” value was found to be 242.25 ± 18 mg.
Turning to `NC/C=C(\F)CS(=O)(=O)c1cccnc1` [Compound 31, (Z)-3-fluoro-4-(pyridin-3-ylsulfonyl)but-2-en-1-amine dihydrochloride], the IC50 in series [5] (setting [15]) is over 30 µM; in series [5] (second Table 6 (Example 38), read-out: Recombinant human SSAO (rhSSAO) inhibition (IC50)), 27 µM; in [8] it was under 1 µM; in [9], under 10 µM. For the same compound, in series [12], the “LOXL1 - Recovery of activity. (%)” value is 8.2%. Further, the “Substrate activity for rhSSAO” value in [14] is reported as “no significant turnover”.
